The values that follow come from patent publication US7981923B2, “Tetralin and indane derivatives and uses thereof” (Roche Palo Alto LLC, priority 2006, dated 2011).

This test addresses T1, recombinant human 5-HT6 receptor (Homo sapiens, UniProt P50406).
T1 construct: expressed in transfected cells; membranes
The test can be described thus: Radioligand binding, [3H]LSD competition in HEK293 cell membranes. The conditions noted are these: competition for [3H]LSD binding, membranes of HEK293 cells expressing recombinant human 5-HT6 receptor; read-out: pKi for 5-HT6 (converted). As to the method:
The binding activity of compounds of this invention in vitro was determined as follows. Duplicate determinations of 5-HT6 ligand affinity were made by competing for binding of [^3H]LSD in cell membranes derived from HEK293 cells stably expressing recombinant human 5-HT6 receptor. Duplicate determinations of 5-HT2A ligand affinity were made by competing for binding of [^3H]Ketanserin (3-(2-(4-(4-fluorobenzoyl)piperidinol)ethyl)-2,4(1H,3H)-quinazolinedione) in cell membranes derived from CHO-K1 cells stably expressing recombinant human 5-HT2A receptor. Membranes were prepared from HEK 293 cell lines by the method described by Monsma et al., Molecular Pharmacology, Vol. 43 pp. 320-327 (1993), and from CHO-K1 cell lines as described by Bonhaus et al., Br J Pharmacol. June; 115 (4):622-8 (1995).
For estimation of affinity at the 5-HT2A receptor all determinations were made in assay buffer containing 50 mM Tris-HCl, 5 mM ascorbic acid, 4 mM CaCl2, pH 7.4 at 32° C., in a 250 microliter reaction volume.
Assay tubes containing [^3H] […] LSD or [^3H]Ketanserin were determined as radioactive counts per minute using Packard TopCount.
Displacement of [^3H]LSD or [^3H]Ketanserin from the binding sites was quantified by fitting concentration-binding data to a 4-parameter logistic equation: […]

T1 sequence (P50406 whole entry): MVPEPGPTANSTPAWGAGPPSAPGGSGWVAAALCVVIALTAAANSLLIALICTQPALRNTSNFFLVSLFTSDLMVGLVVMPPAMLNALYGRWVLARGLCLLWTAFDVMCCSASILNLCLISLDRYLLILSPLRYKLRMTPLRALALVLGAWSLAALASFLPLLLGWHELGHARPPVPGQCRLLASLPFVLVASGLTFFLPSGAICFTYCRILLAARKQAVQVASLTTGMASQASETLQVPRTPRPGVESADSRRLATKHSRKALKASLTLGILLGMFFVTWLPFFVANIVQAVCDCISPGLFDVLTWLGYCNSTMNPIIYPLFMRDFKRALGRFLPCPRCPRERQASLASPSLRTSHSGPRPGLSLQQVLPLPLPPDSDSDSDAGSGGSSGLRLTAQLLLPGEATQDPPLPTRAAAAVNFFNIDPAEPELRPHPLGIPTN

As for `NC[C@@H]1CCCc2cc(S(=O)(=O)c3cccc(F)c3)cc(F)c21` (stereo in doubt) [C-[8-Fluoro-6-(3-fluoro-benzenesulfonyl)-1,2,3,4-tetrahydro-naphthalen-1-yl]-methylamine], the Ki was approximately 0.1 nM.
